In BigSolDB 2.1:

CO/N=C(\C(=O)O)c1csc(N)n1
Conditions	solubility (mole fraction)
in ethanol, 283.12 K	6.9e-05
in ethanol, 288.42 K	8.31e-05
in ethanol, 293.23 K	0.000101
in ethanol, 298.17 K	0.000124
in ethanol, 303.33 K	0.000151
in ethylene glycol, 283.11 K	0.00129
in ethylene glycol, 288.68 K	0.00152
in ethylene glycol, 293.41 K	0.00175
in ethylene glycol, 298.26 K	0.002
in ethylene glycol, 303.46 K	0.0023
in methanol, 283.75 K	0.000293
in methanol, 288.17 K	0.000334
in methanol, 293.36 K	0.00038
in methanol, 298.26 K	0.00043
in methanol, 303.1 K	0.000489
in n-propanol, 282.85 K	2.14e-05
in n-propanol, 288.05 K	2.49e-05
in n-propanol, 293.09 K	3.1e-05
in n-propanol, 298.3 K	4.25e-05
in n-propanol, 303.08 K	5.94e-05
in water, 283.67 K	0.000356
in water, 288.48 K	0.000416
in water, 293.22 K	0.000483
in water, 298.36 K	0.000557
in water, 303.22 K	0.000637
